In US20050175976A1, “Meiosis activating sterol augments implantation rate” (priority 1999, published 2005):
Marks after values point to notes of the source that are not given here.

Key:
[1] = tested on: mouse cumulus enclosed oocytes; test: Induction of resumption of meiosis in mouse cumulus enclosed oocytes exposed to AY9944-A-7; format: cell-based
Method: Immature female C57BI/2J B6D2 mice (11-15 g) were stimulated with exogenous gonadotropins (7.5 IU per mouse; Gonadoplex, Leo, Ballerup, Denmark). Forty-eight hours after injection with gonadotropins, the mice were sacrificed and the ovaries removed. Cumulus enclosed oocytes (CEO) were recovered by puncturing individual follicles and collected in a culture medium (a-MEM, Gibco, BRL) supplemented with 3 mg/ml bovine serum albumin, 5 mg/ml human serum albumin, 2 mM L-glutamine, 100 IU/ml penicillin, 100 μg/ml streptomycin and 4 mM hypoxanthine (control medium).
Induction of resumption of meiosis in mouse cumulus enclosed oocytes exposed to an inhibitor of sterol Δ14-reductase (AY9944-A-7) during culture.
Oocytes from 10-15 mice were pooled and randomly divided into the different test groups. The tests were performed using 4-well dishes (Nunclon, Roskilde, Denmark) each well containing 20-50 oocytes in 400 μl culture medium. Each dish had one well serving as control and the three other wells as tests.
All test media were prepared using HX-medium. AY9944-A-7 (AY) was kindly provided by Wyeth-Ayerst, Princeton, N.J., USA. AY has no structural similarities to MAS. Stock solutions of AY9944 in water were stored at −20° C., and was added directly to the HX-medium immediately prior to oocyte culture. AY was used in concentrations from 0.2 to 25 μM.

[2] = tested on: sterol 14-reductase (Δ14R); details: AY 0.1 μM, cultured rat hepatocytes; cited from earlier work
[3] = tested on: mouse cumulus enclosed oocytes; test: Resumption of meiosis (GVBD) in mouse cumulus enclosed oocytes exposed to Amphotericin B; format: cell-based
Method: Amphotericin B is a medical product used against fungal infections by inhibiting cholesterol biosynthesis. It has no structural similarities to MAS. Its effect on resumption of meiosis was tested on mouse cumulus enclosed oocytes, in vitro. Ovarian stimulation was performed on immature female mice and the cumulus enclosed oocytes (CEO) isolated as described in Example 3.
Cumulus enclosed oocytes were cultured separately in 4-well dishes (Nuncleon, Roskilde, Denmark), 0.4 ml medium in each well containing control medium or medium supplemented with Amphotericin B (Bristol-Myers Squibb) in a 100% humidified atmosphere of 5% CO2 with 95% air at 37° C.
The effect of Amphotericin in concentrations of 0.6 and 1.2 μg/ml was evaluated after 22 hours in culture.
In another series of experiments, i.e. priming of CEO, the culture period with Amphotericin, priming period, varied from 5 min. to 240 min. in test medium with 1.2 μg/ml Amphotericin. After the priming period, the CEO were transferred to control medium and the culture continued for a total of 22 hours.
By the end of the culture period, germinal […] breakdown (GVBD) was scored by examining the oocyte in an inverted microscope. The percentage of oocytes with GVBD per total number of oocytes (% GVBD) was calculated.

[4] = tested on: mouse cumulus enclosed oocytes; test: Resumption of meiosis (GVBD) of mouse oocytes cultured in vitro with FSH and/or EGF; format: cell-based; details: EGF 0.5 ng/ml, 22-24 h, HX-medium
Method: Immature female mice (B6D2-F1 strain C57B1/2J) were kept under controlled light and temperature conditions with free access to food and water. […] The percentage of oocytes with GVBD per total number of oocytes (% GVBD) was calculated.

## Cl.Cl.Clc1ccccc1CNCC1CCC(CNCc2ccccc2Cl)CC1 (stereo not shown) [AY, AY9944-A-7]
[1]; AY 0.2 to 25 μM in HX-medium
  Oocyte maturation of CEO (FIG. 2): stimulates oocyte maturation of CEO in a dose-dependent way
[1]; AY 5, 10 and 25 μM, p<0.05, p<0.001 and p<0.001
  GVBD compared to the controls (FIG. 2): increase GVBD significantly
[2]
  Mode of action on Δ14R: competitive inhibitor

## C[C@@H]1[C@H](O)[C@@H](C)/C=C/C=C/C=C/C=C/C=C/C=C/C=C/[C@H](O[C@@H]2O[C@H](C)[C@@H](O)[C@H](N)[C@@H]2O)C[C@@H]2O[C@](O)(C[C@@H](O)C[C@@H](O)[C@H](O)CC[C@@H](O)C[C@@H](O)CC(=O)O[C@H]1C)C[C@H](O)[C@H]2C(=O)O [Amfotericin, Amphotericin B]
[3]; 0.6 μg/ml, 22 hours in culture, 94 oocytes
  % GVBD: 28%
[3]; 0.6 μg/ml, 22 hours in culture, of 94 oocytes
  No. of GVBD: 26
[3]; 1.2 μg/ml priming 5 minutes, then control medium to 22 hours, 98 oocytes
  % GVBD: 21%
[3]; 1.2 μg/ml priming 5 minutes, then control medium to 22 hours, of 98 oocytes
  No. of GVBD: 21
[3]; 1.2 μg/ml priming 10 minutes, then control medium to 22 hours, 88 oocytes
  % GVBD: 29%
[3]; 1.2 μg/ml priming 10 minutes, then control medium to 22 hours, of 88 oocytes
  No. of GVBD: 26
[3]; 1.2 μg/ml priming 30 minutes, then control medium to 22 hours, 116 oocytes
  % GVBD: 36%
[3]; 1.2 μg/ml priming 30 minutes, then control medium to 22 hours, of 116 oocytes
  No. of GVBD: 42
[3]; 1.2 μg/ml priming 120 minutes, then control medium to 22 hours, 50 oocytes
  % GVBD: 50%
[3]; 1.2 μg/ml priming 120 minutes, then control medium to 22 hours, of 50 oocytes
  No. of GVBD: 25
[3]; 1.2 μg/ml priming 240 minutes, then control medium to 22 hours, 49 oocytes
  % GVBD: 69%
[3]; 1.2 μg/ml priming 240 minutes, then control medium to 22 hours, of 49 oocytes
  No. of GVBD: 34
[3]; 1.2 μg/ml, 22 hours in culture, 121 oocytes
  % GVBD: 76%
[3]; 1.2 μg/ml, 22 hours in culture, of 121 oocytes
  No. of GVBD: 92

## EGF: epidermal growth factor
[4]; 68 oocytes
  % GVBD: 31^c,d %
[4]; of 68 oocytes
  No. of GVBD: 21
